Source: US20110144001A1, “HIGHLY BRIDGED PEPTIDES FROM ACTINOMADURA NAMIBIENSIS” (SANOFI-AVENTIS, priority 2008, published 2011)

Experiments:
[1] = system: Bacillus subtilis (ATCC 6633); assay: microbe, parasite or virus in culture; assay type: cell-based; details: 37° C., 20 μl of 1 mg/ml test solution on 6 mm filter, 1 to 3 days
Description: (§1) The compounds were dissolved in water with 10% MeOH to a final concentration of 1 mg/ml. For the bioassay sterile Nunc plates with a size of 24×24 cm were used. For one plate 200 ml of agar were used. The agar was cooled after autoclaving to 55° C. and 2-4 ml of culture suspension of the test organism were added before plating. To each plate 64 filter plates with 6 mm in diameter were added. To each filter 20 μl of the test solution were added and incubated for 1 to 3 days at 28° C. or 37° C. The inhibition zone in mm was reported. For a detailed description of the methods, see Bauer et al., Amer. J. Clin. Pathol. 1966, 45, 493-496; Müller & Melchinger, Methoden in der Mikrobiologie, Franckhsche Verlagshandlung, Stuttgart (1964); Mueller & Hinton, Proc. Soc. Expt. Biol. Med. 1941, 48, 330-333.

[2] = system: Streptomyces murinus (DSM 40091); assay: microbe, parasite or virus in culture; assay type: cell-based; details: 28° C., 20 μl of 1 mg/ml test solution on 6 mm filter, 1 to 3 days
Description: as §1

[3] = system: SNI mouse model of neuropathic pain; assay: Spared nerve injury (SNI) mouse model of neuropathic pain, tactile allodynia by automatic von Frey test; assay type: in vivo, C57B6 mice; details: 3 mg/kg intravenous single application
Description: Labyrinthopeptin A1 was studied in the spared nerve injury (SNI) mouse model of neuropathic pain in order to proof the activity on tactile allodynia. Under general anesthesia, the two major branches of the sciatic nerve in adult male C57B6 mice (weight: 22.8 g+/−0.35 SEM) have been ligated and transsected, with the sural nerve left intact. Tactile allodynia has been determined with the automatic von Frey test: using a dump needle stick, the plantar skin of hind paws was exposed to a pressure stimulus of increasing intensity up to 5 g. The force in grams at which the animal responded with hindpaw withdrawal was used as a read-out for tactile allodynia. The study was performed 7 days after nerve lesion over 6 hours with an additional measurement after 24 hours. Within two days after nerve transsection, tactile allodynia developed completely and remained stable over at least two weeks. The compound was administered intravenous as a single application (3 mg/kg). As a vehicle for the intravenous application was the 1:1:18 (ethanol:solutol: phosphate buffered saline) vehicle chosen.
The effect was gone 24 hours after application. […] The percent benefit of the treatment was evaluated using the |AUC1-6 hour| values of the ipsilateral vehicle group (0% benefit) and all |AUC1-6 hour| values of the contralateral sides of all three groups (100% benefit=maximal possible effect). […]

Compound	inhibition zone, Bacillus subtilis (ATCC 6633) [1]	inhibition zone, Streptomyces murinus (DSM 40091) [2]	percent benefit of the treatment from |AUC1-6 hour| of paw withdrawal threshold ([3]; 7 days after nerve lesion, 0% = ipsilateral vehicle, 100% = contralateral sides)	treatment effect on delta |AUC1-6 hour| of paw withdrawal threshold (1-way ANOVA, Dunnett analysis) ([3]; vs vehicle)	zone of inhibition at 1000 µg/mL ([1]; Bacillus subtilis, ATCC6633)	zone of inhibition at 1000 µg/mL ([2]; Streptomyces murinus, DSM40091)
C/C=C1\NC(=O)[C@H](Cc2ccccc2)NC(=O)[C@@H]2CCCN2C(=O)[C@H](C(C)C)NC(=O)[C@H](Cc2c[nH]c3ccccc23)NC(=O)[C@]23CSC[C@H](NC1=O)C(=O)N[C@H](C(=O)NCc1ccccc1)CSSC[C@@H](NC(=O)[C@@H]1CSC[C@]4(C[C@H](NC(=O)OC(C)(C)C)C(=O)N[C@@H](CC(N)=O)C(=O)N[C@@H](C)C(=O)N4)C(=O)N[C@@H](C(C)C)C(=O)N[C@@H](Cc4c[nH]c5ccccc45)C(=O)N[C@@H](CCC(=O)NCc4ccccc4)C(=O)N1)C(=O)N[C@@H](C2)C(=O)N[C@@H]([C@@H](C)O)C(=O)NCC(=O)N3	9 mm	7 mm	–	–	–	–
C/C=C1\NC(=O)[C@H](Cc2ccccc2)NC(=O)[C@@H]2CCCN2C(=O)[C@H](C(C)C)NC(=O)[C@H](Cc2c[nH]c3ccccc23)NC(=O)[C@]23CSC[C@H](NC1=O)C(=O)N[C@H](C(=O)O)CSSC[C@@H](NC(=O)[C@@H]1CSC[C@]4(C[C@H](NC(=O)OC(C)(C)C)C(=O)N[C@@H](CC(N)=O)C(=O)N[C@@H](C)C(=O)N4)C(=O)N[C@@H](C(C)C)C(=O)N[C@@H](Cc4c[nH]c5ccccc45)C(=O)N[C@@H](CCC(=O)O)C(=O)N1)C(=O)N[C@@H](C2)C(=O)N[C@@H]([C@@H](C)O)C(=O)NCC(=O)N3 [Labyrinthopeptin A1 derivative, Ex. 16]	9 mm	0 mm	–	–	–	–
C/C=C1\NC(=O)[C@H](Cc2ccccc2)NC(=O)[C@@H]2CCCN2C(=O)[C@H](C(C)C)NC(=O)[C@H](Cc2c[nH]c3ccccc23)NC(=O)[C@]23CSC[C@H](NC1=O)C(=O)N[C@H](C(=O)O)CSSC[C@@H](NC(=O)[C@@H]1CSC[C@]4(C[C@H](NC(=O)OCCCCC)C(=O)N[C@@H](CC(N)=O)C(=O)N[C@@H](C)C(=O)N4)C(=O)N[C@@H](C(C)C)C(=O)N[C@@H](Cc4c[nH]c5ccccc45)C(=O)N[C@@H](CCC(=O)O)C(=O)N1)C(=O)N[C@@H](C2)C(=O)N[C@@H]([C@@H](C)O)C(=O)NCC(=O)N3 [Labyrinthopeptin A1 derivative, Ex. 18]	8 mm	7 mm	–	–	–	–
C/C=C1\NC(=O)[C@H](Cc2ccccc2)NC(=O)[C@@H]2CCCN2C(=O)[C@H](C(C)C)NC(=O)[C@H](Cc2c[nH]c3ccccc23)NC(=O)[C@]23CSC[C@H](NC1=O)C(=O)N[C@H](C(=O)O)CSSC[C@@H](NC(=O)[C@@H]1CSC[C@]4(C[C@H](N)C(=O)N[C@@H](CC(N)=O)C(=O)N[C@@H](C)C(=O)N4)C(=O)N[C@@H](C(C)C)C(=O)N[C@@H](Cc4c[nH]c5ccccc45)C(=O)N[C@@H](CCC(=O)O)C(=O)N1)C(=O)N[C@@H](C2)C(=O)N[C@@H]([C@@H](C)O)C(=O)NCC(=O)N3 [Labyrinthopeptin A1]	16.5 mm	13 mm	95 % benefit	significant treatment effects	–	–
CN(C)[C@@H]1C(O)=C(C(N)=O)C(=O)[C@@]2(O)C(O)=C3C(=O)c4c(O)cccc4[C@@](C)(O)[C@H]3C[C@@H]12 [Tetracycline, reference compound]	–	–	–	–	32 mm	24 mm
